Source: patent US20250304600A1, “PHARMACEUTICAL COMPOUNDS AND COMPOSITIONS AS c-KIT KINASE INHIBITORS” (Enanta Pharmaceuticals, Inc., priority 2023, published 2025)

Legend:
[1] = molecular target: T1, Recombinant human c-KIT kinase (Homo sapiens, UniProt P10721); experiment: c-KIT kinase chemiluminescence assay (ADP-Glo); format: biochemical; conditions: ATP 50 μM
T1 construct: purchased Promega V4498
Protocol: The c-KIT Kinase Enzyme System (V4498) and ADP-Glo™ Kinase Assay kit (V6930) were purchased from Promega (Madison, WI). DMSO (D2650) was purchased from Sigma-Aldrich (Burlington, MA).
c-KIT Kinase Chemiluminescence Assay:
Kinase Reaction: The kinase assay was based on the recommended protocol by c-KIT Kinase Enzyme System from Promega. Recombinant human c-KIT kinase in 3 μL of assay buffer (40 mM Tris pH 7.5, 20 mM MgCl2, 0.1 mg/mL BSA and 50 μM DTT) was added to the test or high control wells and 3 μL of assay buffer was added to the low control wells. The microplate was centrifuged at 800 rotations per minute (rpm) for 60 s and incubated at room temperature (RT) for 30 min. Next, 2 μL of buffered ATP and polyEY substrate solution was added to all wells. The microplate was centrifuged at 800 rpm for 60 s and incubated at RT for 2 h.
ADP detection with ADP-Glo™ Kinase Assay: After the kinase reaction incubation, 5 μL of ADP-Glo™ reagent was added to all wells. The microplate was centrifuged at 800 rpm for 60 s and incubated at RT for 40 min. Ten microliter (10 μL) of Kinase Detection Reagent (Luciferin-Luciferase system) was then added to all wells. The microplate was centrifuged at 800 rpm for 60 s and incubated at RT for 60 min. Kinase activity was measured as an increase in luminescence at RT in an Envision plate reader equipped with 560 nm filters and operating in endpoint mode.
Data Analysis: Endpoint chemiluminescence from high and low control wells were used to calculate normalized c-KIT activity at various concentrations of test compounds. The normalized activities were fitted to inhibitor-versus-normalized response fit in GraphPad Prism 7 to determine half-maximal inhibitory concentration (IC50) and hill coefficient values (H).
Where I is the inhibitor concentration and H is the Hill coefficient.

[2] = tested on: M-07e cells which endogenously express human c-KIT; experiment: M-07e cellular assay: SCF-mediated cell proliferation (CellTiter Glo); format: cell-based; conditions: 72 h, SCF-mediated proliferation of M-07e cells
Protocol: M-07e cells (Creative Bioarray, CSC-C0249) which endogenously express human c-KIT were used to evaluate the effect of compounds on stem cell factor (SCF)-mediated cell proliferation. M-07e cells were cultured in growth media (RPMI+10% FBS+1% penicillin/streptomycin+10 ng/mL GM-CSF) at 5E5-1.5E6 cells/mL, replenishing media every 3-4 days. 1.5E4 cells were seeded per well in 384 well tissue culture treated plates in […] assay media (RPMI+10% FBS+1% penicillin/streptomycin) without growth factor stimulation and incubated at 37° C. in a CO2 humidity-controlled incubator. Twenty-four hours later, three-fold serially diluted test compounds in media containing SCF (at the previously determined EC90) were added to the plated M-07e cells and incubated for an additional 72 hours. Cell viability was determined by adding 25 μL CellTiter Glo (Promega) to the cells and the luminescence was measured using a Perkin Elmer Envision plate reader. The EC50 was determined using GraphPad Prism. Percent cell growth was determined after normalizing the curve to the mean RLU high control (no compound control wells) at 100% and the mean RLU low control (no SCF control wells) at 0%.

T1 sequence (P10721 544-976 limits assumed): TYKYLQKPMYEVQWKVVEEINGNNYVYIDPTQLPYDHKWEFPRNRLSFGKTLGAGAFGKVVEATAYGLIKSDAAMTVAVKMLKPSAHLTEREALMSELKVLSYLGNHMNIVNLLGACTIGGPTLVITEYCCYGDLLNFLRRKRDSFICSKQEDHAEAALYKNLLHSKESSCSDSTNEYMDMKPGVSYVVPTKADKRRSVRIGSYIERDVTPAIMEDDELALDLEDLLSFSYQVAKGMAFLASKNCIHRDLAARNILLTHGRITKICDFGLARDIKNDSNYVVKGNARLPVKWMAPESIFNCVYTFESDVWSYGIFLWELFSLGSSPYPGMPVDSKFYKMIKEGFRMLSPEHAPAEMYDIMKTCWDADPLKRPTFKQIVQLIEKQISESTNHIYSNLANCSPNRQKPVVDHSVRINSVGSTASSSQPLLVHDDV

SMILES | IC50 [1] [nM] | EC50 [2] [nM]
Cc1ccc(-c2noc([C@H]3C[C@@H]3F)n2)cc1NC(=O)c1cnc(-c2ccc3nn(CC(C)(C)O)c(C)c3c2)o1 [Example 21a] | < 100 | < 100
Cc1ccc(-c2noc(C3C[C@@H]3F)n2)cc1NC(=O)c1ccc(NC(=O)OC(C)(C)C)nc1 (stereo partly drawn) [Example 396] | > 1000 | > 1000
Cc1ccc(-c2noc(C3C[C@@H]3C(F)F)n2)cc1NC(=O)c1ccc(NC(=O)OC(C)(C)C)nc1 (stereo partly drawn) [Example 398] | > 1000 | > 1000
Cc1ncc(-c2nnn(C3CCC(F)(F)CC3)n2)cc1NC(=O)c1cnn2ccc(N3CC4(C3)CC(O)(C(F)F)C4)cc12 [Example 385] | < 100 | < 100
O=C(Nc1cc(-c2ncc(C3CC3)cn2)ccc1C(F)F)c1cnn2ccc(N3CC4(C3)CC(O)(C(F)F)C4)cc12 [Example 393] | 100 to 1000 | < 100
Cc1ncc(-c2nnc(C3C[C@@H]3F)s2)cc1NC(=O)c1cnn2ccc(N3CC4(C3)CC(O)(C(F)F)C4)cc12 (stereo partly drawn) [Example 407] | 100 to 1000 | < 100
